Experimental data as given in patent US7438931B2, “Methods and compositions for the treatment of angiogenic diseases” (The Regents of The University of Michigan, priority 1998, dated 2008).
Where “and” joins values, the source holds several entries; their conditions need not be identical. Equal values may be shown once.

Assays:
[1] = system: SUM149 breast cancer cells; assay: Nude mice with orthotopically injected SUM149 cells; format: in vivo
Text: In this study, the ability of tetrathiomolybdate (TM) to abrogate or retard the growth of tumors in the mammary pads of nude mice after orthotropic injection of human breast cancer cells was studied. The highly angiogenic inflammatory breast cancer cell line called SUM149 was selected for this study. Given its high propensity to form palpable tumors within 2 weeks of injection into the mammary of 80-100% of the nude mice injected, this cell line posed a stringent test of the ability of TM to impair tumor progression.
Three groups of 5 nude mice each were set up in separate cages. Groups 2 and 3 received TM in the drinking water to average an intake of 1.2 mg/day/mouse, starting at day −7. Groups 1, 2, and 3 were injected on day 0 with 10^6 SUM149 breast cancer cells in the second thoracic mammary fat pad. On day 34, as no palpable tumors were noticeable in any of the mice in the treatment groups, TM was skipped on groups 2 and 3, and then TM was restarted on group 2 at a dose of 0.6 mg/day/mouse, while TM was resumed at full dose (1.2 mg/mouse/day) in group 3.
The developing tumors were measured approximately twice weekly, and the average of the product of the bi-dimensional perpendicular diameters for each group versus time is plotted in FIG. 3. The tumors in the control group grew relatively rapidly and all animals developed tumors. […] This dose decreases copper to approximately 10-20% of baseline levels. It is this degree of copper deficiency, well tolerated in both mice and humans, which appears to be required to inhibit tumor angiogenesis.

Phase I trial: toxicity = format: in vivo, human
Text: Six patients were to be enrolled at each dose level. After 4 patients were enrolled at level I, if one patient experienced dose-limiting toxicity (DLT) (defined as Hct<80% of baseline), 2 more patients were enrolled at level I. If no DLT was observed, patients were enrolled at the next dose level. Treatment was allowed to continue beyond induction of target copper deficiency, if the patients experienced a partial or complete clinical response or achieved clinical stable disease by the following definitions. Complete response is defined as the disappearance of all clinical and laboratory signs and symptoms of active disease. Partial response is defined as a 50% or greater reduction in the size of measurable lesions defined by the sum of the products of the longest perpendicular diameters of the lesions, with no new lesions or lesions increasing in size. Minor response is defined as a 25-49% reduction in the sum of the products of the longest perpendicular diameters of one or more measurable lesions, no increase in size of any lesions and no new lesions; stable disease is any change in tumor measurements not represented by the criteria for response or progressive disease, which is defined as an increase of 25% or more in the sum of the products of the longest perpendicular diameters of any measurable indicator lesions, compared to the smallest previous measurement or appearance of a new lesion. Because copper deficiency is not a cytotoxic treatment modality, the patients who provide information about the efficacy of TM for long-term therapy, in this population of patients with advanced cancer, are primarily those who remained within the target Cp window of (20±10)% of baseline for over 90 days, without disease progression
Complete blood counts, liver and renal function tests, urinalyses, and Cp level (by the oxidase method) were performed weekly for 16 weeks, then bi-weekly. Physical examinations and evaluations of toxicity were carried out every 2 weeks for 8 weeks, then every 4 weeks for the duration of therapy. Toxicity was evaluated using the National Cancer Institute Common Toxicity Criteria (Table 3). […] Nevertheless, therapy will be discontinued and the patient removed from the study if grade 3 or higher toxicities of any type are observed, whatever the probable etiology. For grade 2 toxicities, an attempt will be made to establish their etiology.

Cp level = assay: TM loading dosing schedule and Cp reduction; format: in vivo, human; conditions: 20 mg tid with meals and a single dose of 60 mg between meals, vs 20 mg tid with meals and 20 mg tid between meals
Experimental: Therefore, this dosing schedule will be studied in a Phase II study. Three other loading doses of TM will also be studied: Level 1: 20 mg tid between meals and 20 mg tid with meals until Cp<20% (10 patients); Level 2: 25 mg tid between meals and 25 mg tid with meals until Cp<20% (10 patients); and Level 3: 30 mg tid between meals and 30 mg tid with meals until Cp<20% (10 patients).

[2] = for eight weeks; cited from earlier work
[3] = approximately 6 mg of TM per kilogram of diet; cited from earlier work

Experimental for mammary tumors: The time of onset of tumors and the quality and quantity of tumor vessels between the treatment and control groups were compared.
The percentage of disease-free mice in the untreated control group was compared to a group of the same transgenic mice treated with 0.5-1.0 mg TM by gavage daily, starting at 100 days of age.

With tetrathiomolybdate [TM] the palpable tumors ([1]; 1.2 mg/day/mouse in drinking water from day −7) was “no tumors were palpable until TM was skipped on day 34”, the “tumor growth after TM skipped on day 34” value ([1]; TM restarted at ½ dose (0.6 mg/day/mouse)) was “the tumors grew more rapidly” and the “tumor growth after TM skipped on day 34” value ([1]; TM resumed at full dose 1.2 mg/day/mouse) was “only very small tumors have grown”. The copper level ([1]; full dose 1.2 mg/day/mouse) was 10-20 % of baseline levels, the “decrease of copper levels” value ([1]; ½ dose of TM (0.6 mg/day/mouse)) was 50% and the toxicities (Phase I trial: toxicity; Cp levels at or above 20% of baseline) was “no cardiac, pulmonary, GI, renal, hepatic, hematologic, infectious, skin, mucosal, or neurologic toxicities observed”. For the same substance, the “patients with mild (greater than 80% of baseline Hct) reversible anemia” value (Phase I trial: toxicity; Cp levels between 10-20% of baseline) was 4 patients, the toxicity (Phase I trial: toxicity; Cp lowered to 10-20% of baseline for up to 17 months of treatment) was “remarkably non-toxic” and the toxicity (Phase I trial: toxicity; Cp reduced to 15-20% of baseline) was “non-toxic”. The “only drug-related toxicity observed” value (Phase I trial: toxicity; in vivo) was “mild anemia in one patient”, the “toxicities on long-term maintenance” value (Phase I trial: toxicity; mild clinical copper deficiency over 8-15 months) was “No additional toxicities of any type were observed” and the “time for hematocrit to recover after stopping the drug” value (Phase I trial: toxicity; one patient, without transfusion) was 5 to 7 days. For the same substance, the other adverse effect (Phase I trial: toxicity; several patients, within 30 minutes of TM ingestion) was “transient, occasional sulphur-smelling burping”, the “speed of Cp reduction” value (Cp level) was “reduces the Cp level to <20% more rapidly” and the “development of clinically overt tumors” value (mammary tumors; 0.5-1.0 mg TM by gavage daily from 100 days of age, median follow-up of 260 days) was “none of the TM-treated mice developed clinically overt tumors”. For the same substance, the “maximum tolerated dose (MTD)” value (mammary tumors; adult mice (average weight 32 grams), prolonged treatment) was 1.0 mg/day, the “outcome at higher doses” value (mammary tumors; animals who received 1.25-1.5 mg) was “died after 1-3 weeks of therapy” and the “shrinkage of well established mammary tumors” value (mammary tumors; control animals treated after tumors >1.5 cm, 2 of 3 cases) was 25% and 50%. The anemia (mammary tumors; copper (Cp) decreased to below 40% of baseline) was “no anemia observed”, the toxicity (mammary tumors; copper levels decreased to 10% of baseline) was “no clinically overt toxicity” and the “time to clinically overt mammary tumors after release from treatment” value (mammary tumors; cross-over group, previously disease-free) was no more than 18 days. The “vascularization of micro-tumors in mammary glands” value (mammary tumors; microscopic analyses of TM-treated mice) was “none of the micro-tumors of the treated mice were vascularized”, the “ceruloplasmin (Cp)” value (mammary tumors; treatment group) was “below 40 % of baseline” and the “potency retained in gelatin capsules” value [2] was “at least 90%”. For the same substance, the effects on copper [3] was “reduction of plasma ceruloplasmin and a reduction in liver and kidney copper” and the water solubility (Water solubility) was “moderately water soluble”.
